Results published in article PMC7794397, “Curbing gastrointestinal infections by defensin fragment modifications without harming commensal microbiota” (Communications Biology, 2021).
In brackets after ≈: the same amount, converted by molar mass. Read-outs that look alike come from different tables or passages of the source. Non-standard residues stand in square brackets, D forms with d. Residues, ends and D or L forms follow the SMILES beside them. ξ: configuration not given here. *: point of attachment. X2 = CCCCCCCCCCCCCCCC(=O)OCC(COC(=O)CCC(=O)*)OC(=O)CCCCCCCCCCCCCCC; X1 = CCCCCCCCCCCCCCCC(=O)OCC(C*)OC(=O)CCCCCCCCCCCCCCC; Palmitoyl = CCCCCCCCCCCCCCCC(=O)*; ξK = NCCCCC(N)C(=O)O; ξC = NC(CS)C(=O)O

Columns and labels:
E. coli = experiment: Antibiogram of ESKAPE pathogens; format: cell-based; conditions: Escherichia coli, column assigned by order in flattened table
Description: (§1) Supplementary Table 1. Antibiogram of ESKAPE pathogens used in this study.
(§2) Bacteria susceptible to all (blue color) or intermediate/resistant to at least one (red color) of antibiotics per class following the EUCAST breakpoints. Black color is shown if the susceptibility to agents in that class is not assessed. Values are minimal inhibition concentrations (MIC) in µg/ml or for Chloramphenicol in diameter (mm). […]

ESKAPE pathogens = experiment: organism not typed
Description: as §1, §2

E. faecium = experiment: microbe, parasite or virus in culture; conditions: for MIC: Enterococcus faecium
Description: as §1, §2

[1] = tested on: multidrug resistant bacteria belonging to the ESKAPE pathogen panel; format: cell-based; conditions: broth microdilution, ESKAPE panel
Protocol: Bactericidal activity was assessed by broth microdilution assay. […] After incubation, 100 µl of 6% TSB (w/v) were added and absorbance was measured at 600 nm (Tecan, Switzerland) and monitored for 18 h. Afterward, 100 µl per well were plated on LB agar to determine the numbers of viable bacteria microbiologically. Bactericidal activity is expressed as the LC99.9, the lowest concentration that killed ≥99.9 % of bacteria.

[2] = tested on: several pathogenic bacteria; experiment: Radial diffusion assay, all tested strains; format: cell-based
Protocol: (§3) Antimicrobial activity was analyzed by radial diffusion assay. Log-phase bacteria were cultivated for up to 18 h in TSB (TSB, Becton Dickinson, USA), washed and diluted to 4 × 10^6 CFU in 10 ml agar. Bacteria were incubated in 10 ml of 10 mM sodium phosphate, pH 7.4, containing 0.3 mg/ml of TSB powder and 1% (w/v) low EEO-agarose (AppliChem). 1 µg of each lipopeptide was pipetted into punched wells in a final volume of 4 µl and diffused into the gel for 3 h at 37 °C. After that, a nutrient-rich gel with 6% TSB (w/v) and 1% agarose in 10 mM sodium phosphate buffer was poured on top of the first gel and incubated for up to 24 h at 37 °C. Then the diameter of inhibition zones was measured.

S. aureus ATCC 25923 = format: cell-based; conditions: for Fold change in MIC: relative to MIC of first passage, Mean
Protocol: Development of resistance to the peptides was assessed with S. aureus and S. Typhimurium. […] Bacteria were cultured overnight at 37 °C at 150 rpm in TSB. Bacteria were washed twice with 10 mM sodium phosphate buffer containing 1% (w/v) TSB. […] After incubation, 100 µl of 6% TSB (w/v) was added and plates incubated in a humidified atmosphere for 21 h at 37 °C and 150 rpm.
The MIC, the lowest concentration of peptide/antibiotic that caused a lack of visible bacterial growth, was determined for each bacterial species. […] This was repeated for 25 passages.

S. aureus [3] = experiment: Antibiogram of ESKAPE pathogens; format: cell-based; conditions: Staphylococcus aureus
Description: as §1, §2

C. rodentium = format: cell-based; conditions: 1 µg peptide/well, 2.5 mm = empty well
Protocol: as §3

P. aeruginosa = format: cell-based; conditions: 1 µg peptide/well, 2.5 mm = empty well
Protocol: as §3

S. Typhimurium = format: cell-based; conditions: for diameter of inhibition zone: 1 µg peptide/well, 2.5 mm = empty well
Protocol: as §3

S. aureus [4] = format: cell-based; conditions: 1 µg peptide/well, 2.5 mm = empty well
Protocol: as §3

Compound: CC1(C)S[C@@H]2[C@H](NC(=O)[C@H](N)c3ccccc3)C(=O)N2[C@H]1C(=O)O [Ampicillin]
- MIC (E. coli; strain DSM682): ≥ 32 µg/mL
- MIC (E. coli; strain DSM8695): 8 µg/mL (≈ 22.9 µM)

Compound: C[C@H]1[C@H](NC(=O)/C(=N\OC(C)(C)C(=O)O)c2csc(N)n2)C(=O)N1S(=O)(=O)O [Aztreonam]
- MIC (ESKAPE pathogens; read-out: MIC (antibiogram)): > 256 µg/mL

Compound: CO/N=C(\C(=O)N[C@@H]1C(=O)N2C(C(=O)O)=C(COC(N)=O)CS[C@H]12)c1ccco1 [Cefuroxim]
- MIC (E. coli; strain DSM682): ≥ 64 µg/mL

Compound: O=C(N[C@H](CO)[C@H](O)c1ccc([N+](=O)[O-])cc1)C(Cl)Cl [Chloramphenicol]
- diameter (antibiogram) (ESKAPE pathogens; one strain of E. faecium, S. aureus or K. pneumoniae, not assignable): 22 mm

Compound: CCCCCCCCCC(=O)N[C@@H](Cc1c[nH]c2ccccc12)C(=O)N[C@H](CC(N)=O)C(=O)N[C@@H](CC(=O)O)C(=O)N[C@@H]1C(=O)NCC(=O)N[C@@H](CCCN)C(=O)N[C@@H](CC(=O)O)C(=O)N[C@H](C)C(=O)N[C@@H](CC(=O)O)C(=O)NCC(=O)N[C@H](CO)C(=O)N[C@@H]([C@H](C)CC(=O)O)C(=O)N[C@@H](CC(=O)c2ccccc2N)C(=O)O[C@@H]1C [Daptomycin]
- MIC (antibiogram) (E. faecium): 4 µg/mL (≈ 2.47 µM)

Compound: CNC(C)C1CCC(N)C(OC2C(N)CC(N)C(OC3OCC(C)(O)C(NC)C3O)C2O)O1 (centres unmarked) [Gentamicin]
- MIC (E. coli; strain DSM8695): ≤ 1 µg/mL

Compound: C[C@@H](O)[C@H]1C(=O)N2C(C(=O)O)=C(SCCN=CN)C[C@H]12 [Imipenem]
- MIC (E. coli; strain DSM682): 2 µg/mL (≈ 6.68 µM)
- MIC (E. coli; strain DSM8695): ≤ 0.25 µg/mL

Compound: C[C@@H](O)[C@H]1C(=O)N2C(C(=O)O)=C(S[C@@H]3CN[C@H](C(=O)N(C)C)C3)[C@H](C)[C@H]12 [Meropenem]
- MIC (E. coli; strain DSM682): 8 µg/mL (≈ 20.9 µM)
- MIC (E. coli; strain DSM8695): ≤ 0.25 µg/mL

Compound: CCCCCCCCCCCCCCCC(=O)OCC(COC(=O)CCC(=O)N[C@@H](CCCNC(=N)N)C(=O)NCC(=O)N[C@@H](CCCCN)C(=O)N[C@@H](C)C(=O)N[C@@H](CCCCN)C(=O)N[C@@H](CS)C(=O)N[C@@H](CS)C(=O)N[C@@H](CCCCN)C(=O)O)OC(=O)CCCCCCCCCCCCCCC (some centres unmarked) [Pam-1] (X2-RGKAKCCK-OH; C-terminus assumed)
- bactericidal activity (in words) [1]: no or low bactericidal activity
- antimicrobial activity (in words) [2]: generally inactive

Compound: CCCCCCCCCCCCCCCC(=O)NC(CSCC(COC(=O)CCCCCCCCCCCCCCC)OC(=O)CCCCCCCCCCCCCCC)C(=O)N[C@@H](CCCNC(=N)N)C(=O)NCC(=O)N[C@@H](CCCCN)C(=O)N[C@@H](C)C(=O)N[C@@H](CCCCN)C(=O)N[C@@H](CS)C(=O)N[C@@H](CS)C(=O)N[C@@H](CCCCN)C(=O)O (some centres unmarked) [Pam-4] (Palmitoyl-[ξC](X1)RGKAKCCK-OH; C-terminus assumed)
- bactericidal activity (in words) [1]: no or low bactericidal activity
- antimicrobial activity (in words) [2]: generally inactive

Compound: CCCCCCCCCCCCCCCC(=O)NCCCCC(NC(=O)CCCCCCCCCCCCCCC)C(=O)N[C@@H](CCCNC(=N)N)C(=O)NCC(=O)N[C@@H](CCCCN)C(=O)N[C@@H](C)C(=O)N[C@@H](CCCCN)C(=O)N[C@@H](CS)C(=O)N[C@@H](CS)C(=O)N[C@@H](CCCCN)C(=O)O (some centres unmarked) [Pam-5] (Palmitoyl-[ξK](Palmitoyl)RGKAKCCK-OH; C-terminus assumed)
- bactericidal activity (in words) [1]: moderate effects
- antimicrobial activity (in words) [2]: generally inactive

Compound: CCN1CCN(C(=O)N[C@@H](C(=O)N[C@@H]2C(=O)N3[C@@H]2SC(C)(C)[C@@H]3C(=O)O)c2ccccc2)C(=O)C1=O [Piperacillin]
- MIC (E. coli; strain DSM8695): ≤ 4 µg/mL

Compound: CO[C@H]1/C=C/O[C@@]2(C)Oc3c(C)c(O)c4c(O)c(c(/C=N/N5CCN(C)CC5)c(O)c4c3C2=O)NC(=O)/C(C)=C\C=C\[C@H](C)[C@H](O)[C@@H](C)[C@@H](O)[C@@H](C)[C@H](OC(C)=O)[C@@H]1C [Rifampicin, reference compound]
- Fold change in MIC (S. aureus ATCC 25923; Day (passage) 0): 1.0
- Fold change in MIC (S. aureus ATCC 25923; Day (passage) 1): 0.8
- Fold change in MIC (S. aureus ATCC 25923; Day (passage) 2): 1.0
- Fold change in MIC (S. aureus ATCC 25923; Day (passage) 3): 1.0
- Fold change in MIC (S. aureus ATCC 25923; Day (passage) 4): 1.7
- Fold change in MIC (S. aureus ATCC 25923; Day (passage) 5): 3.7
- Fold change in MIC (S. aureus ATCC 25923; Day (passage) 6): 43.3
- Fold change in MIC (S. aureus ATCC 25923; Day (passage) 7): 87.3
- Fold change in MIC (S. aureus ATCC 25923; Day (passage) 8): 163.3
- Fold change in MIC (S. aureus ATCC 25923; Day (passage) 9): 348.0
- Fold change in MIC (S. aureus ATCC 25923; Day (passage) 10): 768.7
- Fold change in MIC (S. aureus ATCC 25923; Day (passage) 11): 1366.0
- Fold change in MIC (S. aureus ATCC 25923; Day (passage) 12): 2731.4
- Fold change in MIC (S. aureus ATCC 25923; Day (passage) 13): 2732.0
- Fold change in MIC (S. aureus ATCC 25923; Day (passage) 14): 3200.7
- Fold change in MIC (S. aureus ATCC 25923; Day (passage) 15): 4267.4
- Fold change in MIC (S. aureus ATCC 25923; Day (passage) 16): 4267.4
- Fold change in MIC (S. aureus ATCC 25923; Day (passage) 17): 4268.0
- Fold change in MIC (S. aureus ATCC 25923; Day (passage) 18): 4267.4
- Fold change in MIC (S. aureus ATCC 25923; Day (passage) 19): 2733.4
- Fold change in MIC (S. aureus ATCC 25923; Day (passage) 20): 2731.5
- Fold change in MIC (S. aureus ATCC 25923; Day (passage) 21): 2731.4
- Fold change in MIC (S. aureus ATCC 25923; Day (passage) 22): 2731.4
- Fold change in MIC (S. aureus ATCC 25923; Day (passage) 23): 2733.4
- Fold change in MIC (S. aureus ATCC 25923; Day (passage) 24): 2741.4
- Fold change in MIC (S. aureus ATCC 25923; Day (passage) 25): 2816.0
- increase of MIC (S. aureus ATCC 25923; after 15 passages): ≥ 4096 fold

Compound: CN(C)[C@@H]1C(=O)C(C(N)=O)=C(O)[C@@]2(O)C(=O)C3=C(O)c4c(O)cccc4[C@@](C)(O)[C@H]3C[C@@H]12 [Tetracyclin]
- MIC (antibiogram) (ESKAPE pathogens; one strain of A. baumannii, P. aeruginosa or E. coli, not assignable): ≥ 256 µg/mL

Compound: NC[C@H]1O[C@H](O[C@H]2[C@H](O)[C@@H](O[C@H]3O[C@H](CO)[C@@H](O)[C@H](N)[C@H]3O)[C@H](N)C[C@@H]2N)[C@H](N)C[C@@H]1O [Tobramycin]
- MIC (E. coli; strain DSM8695): ≤ 1 µg/mL

Compound: CN[C@H](CC(C)C)C(=O)N[C@H]1C(=O)N[C@@H](CC(N)=O)C(=O)N[C@H]2C(=O)N[C@H]3C(=O)N[C@H](C(=O)N[C@H](C(=O)O)c4cc(O)cc(O)c4-c4cc3ccc4O)[C@H](O)c3ccc(c(Cl)c3)Oc3cc2cc(c3O[C@@H]2O[C@H](CO)[C@@H](O)[C@H](O)[C@H]2O[C@H]2C[C@](C)(N)[C@H](O)[C@H](C)O2)Oc2ccc(cc2Cl)[C@H]1O [Vancomycin]
- MIC (E. faecium; DSM2918, read-out: MIC (antibiogram)): ≥ 32 µg/mL
- MIC (E. faecium; read-out: MIC (antibiogram)): ≥ 32 µg/mL
- MIC (S. aureus [3]; ATCC33592, read-out: MIC (antibiogram)): 1 µg/mL (≈ 0.69 µM)
- MIC (S. aureus [3]; ATCC43300, read-out: MIC (antibiogram)): 1 µg/mL (≈ 0.69 µM)
- MIC (S. aureus [3]; DSM20231, read-out: MIC (antibiogram)): 1 µg/mL (≈ 0.69 µM)

Compound: RGKAKCCK [Octapeptide, the C-terminal eight amino acids of human β-defensin 1]
- diameter of inhibition zone (C. rodentium; experiment 1 of 3): 5.5 mm
- diameter of inhibition zone (C. rodentium; experiment 2 of 3): 5 mm
- diameter of inhibition zone (C. rodentium; experiment 3 of 3): 5.5 mm
- diameter of inhibition zone (P. aeruginosa; experiment 1 of 3): 3.5 mm
- diameter of inhibition zone (P. aeruginosa; experiment 2 of 3): 4 mm
- diameter of inhibition zone (P. aeruginosa; experiment 3 of 3): 4 mm
- diameter of inhibition zone (S. Typhimurium; experiment 1 of 3): 2.5 mm
- diameter of inhibition zone (S. Typhimurium; experiment 2 of 3): 2.5 mm
- diameter of inhibition zone (S. Typhimurium; experiment 3 of 3): 2.5 mm
- inhibition of S. Typhimurium growth (in words) (S. Typhimurium; radial diffusion assay): failed to inhibit
- diameter of inhibition zone (S. aureus [4]; experiment 1 of 3): 6 mm
- diameter of inhibition zone (S. aureus [4]; experiment 2 of 3): 7 mm
- diameter of inhibition zone (S. aureus [4]; experiment 3 of 3): 6.5 mm
